Results published in ChEMBL document CHEMBL5465560, “Selectivity Literature for EUbOPEN Chemogenomic Library” (2024).

How the values were obtained:
[1] = biological target: T1, STE20-related kinase adapter protein alpha (Homo sapiens) (UniProt Q7RTN6); test: Selectivity interaction (Kinase panel (KiNativ target engagement assay in Jurkat cells)) EUB0001635a STRADA; format: cell-based; settings: Selectivity number of off-targets 0.0, Selectivity number of targets 233.0, Source Knowledge https://www.sciencedirect.com/science/article/pii/S2451945619300674?via%3Dihub, at 1 µM
T1 sequence (whole entry): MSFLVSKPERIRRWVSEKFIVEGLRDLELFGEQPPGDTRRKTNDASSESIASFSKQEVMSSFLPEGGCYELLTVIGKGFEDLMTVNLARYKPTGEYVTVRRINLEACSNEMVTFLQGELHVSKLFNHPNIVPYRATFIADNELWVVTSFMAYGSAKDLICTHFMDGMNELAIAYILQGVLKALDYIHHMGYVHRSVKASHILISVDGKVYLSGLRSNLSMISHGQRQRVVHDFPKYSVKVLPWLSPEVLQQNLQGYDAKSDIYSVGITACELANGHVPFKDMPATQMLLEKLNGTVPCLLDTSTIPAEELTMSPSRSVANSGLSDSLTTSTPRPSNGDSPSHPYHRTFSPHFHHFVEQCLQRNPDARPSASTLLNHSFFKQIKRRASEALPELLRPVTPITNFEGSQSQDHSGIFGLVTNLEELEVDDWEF

[2] = biological target: Cyclin-dependent kinase 14 (Homo sapiens) (UniProt O94921); test: Selectivity interaction (KinomeScan (DiscoverX)) EUB0000229b CDK14; settings: at 10 µM
Cyclin-dependent kinase 14 (Homo sapiens), sequence (O94921 whole entry): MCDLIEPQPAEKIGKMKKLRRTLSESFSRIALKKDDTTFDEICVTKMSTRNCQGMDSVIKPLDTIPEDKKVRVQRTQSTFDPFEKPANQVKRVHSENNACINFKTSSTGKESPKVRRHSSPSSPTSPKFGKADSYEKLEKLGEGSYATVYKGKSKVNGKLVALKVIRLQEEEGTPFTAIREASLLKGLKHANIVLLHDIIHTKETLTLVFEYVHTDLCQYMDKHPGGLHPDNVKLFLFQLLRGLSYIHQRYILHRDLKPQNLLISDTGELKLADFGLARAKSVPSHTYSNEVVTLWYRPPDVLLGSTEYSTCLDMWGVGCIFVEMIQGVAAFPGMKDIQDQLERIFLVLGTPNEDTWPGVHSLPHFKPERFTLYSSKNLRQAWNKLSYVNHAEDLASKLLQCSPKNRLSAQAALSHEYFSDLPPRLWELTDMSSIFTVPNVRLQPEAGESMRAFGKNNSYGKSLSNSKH

[3] = biological target: Fibroblast growth factor receptor 3 (Homo sapiens, UniProt P22607); test: (§1) Selectivity interaction (KinomeScan (DiscoverX)) EUB0000595a FGFR3; settings: at 10 µM
Fibroblast growth factor receptor 3, sequence (P22607 23-806 limits assumed): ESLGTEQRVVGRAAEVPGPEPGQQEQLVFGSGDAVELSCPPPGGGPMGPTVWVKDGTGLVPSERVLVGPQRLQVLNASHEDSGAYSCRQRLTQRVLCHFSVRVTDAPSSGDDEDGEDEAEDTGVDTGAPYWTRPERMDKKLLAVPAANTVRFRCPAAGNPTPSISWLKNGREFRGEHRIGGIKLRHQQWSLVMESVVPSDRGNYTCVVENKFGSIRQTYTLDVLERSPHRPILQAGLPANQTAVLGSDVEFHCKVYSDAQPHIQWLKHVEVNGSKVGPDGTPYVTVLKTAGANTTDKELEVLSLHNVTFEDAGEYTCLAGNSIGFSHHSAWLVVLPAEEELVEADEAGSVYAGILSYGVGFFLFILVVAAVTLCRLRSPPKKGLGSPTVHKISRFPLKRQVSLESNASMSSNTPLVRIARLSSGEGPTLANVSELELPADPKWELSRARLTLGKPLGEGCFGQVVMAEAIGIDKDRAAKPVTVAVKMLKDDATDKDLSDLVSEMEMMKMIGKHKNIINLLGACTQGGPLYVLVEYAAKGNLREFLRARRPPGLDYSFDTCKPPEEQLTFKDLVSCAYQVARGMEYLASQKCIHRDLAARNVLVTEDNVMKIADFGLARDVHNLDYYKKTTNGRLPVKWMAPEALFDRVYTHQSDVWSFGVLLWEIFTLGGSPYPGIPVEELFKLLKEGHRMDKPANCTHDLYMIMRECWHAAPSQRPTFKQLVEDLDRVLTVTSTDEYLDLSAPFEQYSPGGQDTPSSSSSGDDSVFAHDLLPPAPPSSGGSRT

[4] = system: Fibroblast growth factor receptor 3 (Homo sapiens), P22607 [G697C]; test: as §1; settings: at 10 µM
Fibroblast growth factor receptor 3 (Homo sapiens), P22607 [G697C], sequence (P22607 whole entry G697C): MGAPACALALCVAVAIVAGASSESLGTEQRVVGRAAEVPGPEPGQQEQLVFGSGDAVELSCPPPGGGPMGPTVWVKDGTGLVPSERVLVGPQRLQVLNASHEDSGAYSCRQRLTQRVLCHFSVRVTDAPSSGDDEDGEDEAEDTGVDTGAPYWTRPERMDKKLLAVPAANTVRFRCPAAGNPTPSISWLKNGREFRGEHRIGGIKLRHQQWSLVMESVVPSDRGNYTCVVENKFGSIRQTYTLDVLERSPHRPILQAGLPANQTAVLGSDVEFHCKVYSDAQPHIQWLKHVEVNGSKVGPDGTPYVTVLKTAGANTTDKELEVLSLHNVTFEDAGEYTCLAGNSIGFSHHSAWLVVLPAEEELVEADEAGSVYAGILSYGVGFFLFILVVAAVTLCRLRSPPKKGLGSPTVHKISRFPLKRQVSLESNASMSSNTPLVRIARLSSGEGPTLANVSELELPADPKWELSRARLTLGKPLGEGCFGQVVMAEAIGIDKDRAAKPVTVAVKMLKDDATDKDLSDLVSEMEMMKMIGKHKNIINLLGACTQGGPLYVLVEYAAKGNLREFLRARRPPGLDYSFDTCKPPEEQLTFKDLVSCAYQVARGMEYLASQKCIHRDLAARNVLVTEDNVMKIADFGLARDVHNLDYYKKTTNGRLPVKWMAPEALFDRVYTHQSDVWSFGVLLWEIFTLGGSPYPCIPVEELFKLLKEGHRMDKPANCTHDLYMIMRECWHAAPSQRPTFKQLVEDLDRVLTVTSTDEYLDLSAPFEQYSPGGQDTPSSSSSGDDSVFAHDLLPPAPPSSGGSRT

[5] = biological target: Serine/threonine-protein kinase 25 (Homo sapiens) (UniProt O00506); test: Selectivity interaction (KinomeScan (DiscoverX)) EUB0000595a STK25; settings: at 10 µM
Serine/threonine-protein kinase 25 (Homo sapiens), sequence (O00506 whole entry, looked up): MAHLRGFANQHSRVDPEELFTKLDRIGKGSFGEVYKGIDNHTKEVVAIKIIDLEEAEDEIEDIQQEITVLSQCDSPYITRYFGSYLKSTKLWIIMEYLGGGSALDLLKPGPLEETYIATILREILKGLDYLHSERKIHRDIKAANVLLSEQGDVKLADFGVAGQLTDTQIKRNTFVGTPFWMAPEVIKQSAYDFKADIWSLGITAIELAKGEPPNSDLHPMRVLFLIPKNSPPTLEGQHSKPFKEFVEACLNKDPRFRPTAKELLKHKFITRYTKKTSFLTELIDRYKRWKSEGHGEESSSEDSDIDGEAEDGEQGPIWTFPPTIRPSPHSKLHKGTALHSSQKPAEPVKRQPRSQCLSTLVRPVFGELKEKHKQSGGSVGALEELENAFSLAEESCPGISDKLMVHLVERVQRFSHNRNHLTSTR

[6] = biological target: T2, Serine/threonine-protein kinase RIO3 (Homo sapiens) (UniProt O14730); test: Selectivity interaction (KinomeScan (DiscoverX)) EUB0000695a RIOK3; settings: at 100 nM
T2 sequence (whole entry): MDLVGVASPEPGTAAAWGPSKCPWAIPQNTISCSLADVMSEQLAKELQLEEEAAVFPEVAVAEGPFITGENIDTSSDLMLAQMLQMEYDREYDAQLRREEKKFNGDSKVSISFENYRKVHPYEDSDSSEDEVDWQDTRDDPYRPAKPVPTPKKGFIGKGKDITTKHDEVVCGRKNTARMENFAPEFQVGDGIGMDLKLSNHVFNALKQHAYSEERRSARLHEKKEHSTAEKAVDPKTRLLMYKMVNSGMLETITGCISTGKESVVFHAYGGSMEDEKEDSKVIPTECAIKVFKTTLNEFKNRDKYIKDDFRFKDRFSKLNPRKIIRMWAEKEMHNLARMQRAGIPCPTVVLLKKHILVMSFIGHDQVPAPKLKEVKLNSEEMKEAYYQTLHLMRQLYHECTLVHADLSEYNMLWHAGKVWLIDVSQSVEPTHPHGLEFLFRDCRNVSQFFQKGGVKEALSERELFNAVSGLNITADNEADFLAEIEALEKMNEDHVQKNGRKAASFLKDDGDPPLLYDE

[7] = biological target: T3, Serine/threonine-protein kinase PLK4 (Homo sapiens) (UniProt O00444); test: Selectivity interaction (KinomeScan (DiscoverX)) EUB0000666a PLK4; settings: at 10 µM
T3 sequence (whole entry): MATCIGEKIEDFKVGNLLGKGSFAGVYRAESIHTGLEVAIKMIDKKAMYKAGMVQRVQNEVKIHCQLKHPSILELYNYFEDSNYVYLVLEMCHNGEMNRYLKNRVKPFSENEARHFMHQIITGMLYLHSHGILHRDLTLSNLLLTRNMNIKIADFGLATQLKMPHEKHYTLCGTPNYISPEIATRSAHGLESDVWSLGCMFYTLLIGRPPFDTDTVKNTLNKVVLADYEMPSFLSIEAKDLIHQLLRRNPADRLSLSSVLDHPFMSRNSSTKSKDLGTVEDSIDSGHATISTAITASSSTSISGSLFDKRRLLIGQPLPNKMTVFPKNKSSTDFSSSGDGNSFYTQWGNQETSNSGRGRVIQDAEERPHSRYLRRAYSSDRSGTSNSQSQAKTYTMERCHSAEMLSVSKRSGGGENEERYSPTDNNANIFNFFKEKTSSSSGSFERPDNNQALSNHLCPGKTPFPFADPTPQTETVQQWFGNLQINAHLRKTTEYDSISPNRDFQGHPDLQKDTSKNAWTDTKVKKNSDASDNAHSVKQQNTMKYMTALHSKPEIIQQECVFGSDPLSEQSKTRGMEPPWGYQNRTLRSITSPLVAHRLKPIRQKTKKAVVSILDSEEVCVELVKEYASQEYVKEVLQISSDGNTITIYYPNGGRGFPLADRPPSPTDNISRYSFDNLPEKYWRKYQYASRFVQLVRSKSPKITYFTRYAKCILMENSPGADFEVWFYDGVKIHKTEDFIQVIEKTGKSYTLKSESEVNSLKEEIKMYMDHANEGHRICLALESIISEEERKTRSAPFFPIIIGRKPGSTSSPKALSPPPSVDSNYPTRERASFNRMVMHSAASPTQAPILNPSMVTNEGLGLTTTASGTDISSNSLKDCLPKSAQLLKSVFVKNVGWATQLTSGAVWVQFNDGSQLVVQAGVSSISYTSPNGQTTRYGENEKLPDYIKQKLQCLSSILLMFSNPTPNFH

[8] = biological target: MAP kinase-activated protein kinase 3 (Homo sapiens) (UniProt Q16644); test: Selectivity interaction (ActivX KiNativ screen (kinase selectivity in THP-1 cell lysates)) EUB0000639a MAPKAPK3; format: subcellular; settings: lysate
MAP kinase-activated protein kinase 3 (Homo sapiens), sequence (Q16644 whole entry, looked up): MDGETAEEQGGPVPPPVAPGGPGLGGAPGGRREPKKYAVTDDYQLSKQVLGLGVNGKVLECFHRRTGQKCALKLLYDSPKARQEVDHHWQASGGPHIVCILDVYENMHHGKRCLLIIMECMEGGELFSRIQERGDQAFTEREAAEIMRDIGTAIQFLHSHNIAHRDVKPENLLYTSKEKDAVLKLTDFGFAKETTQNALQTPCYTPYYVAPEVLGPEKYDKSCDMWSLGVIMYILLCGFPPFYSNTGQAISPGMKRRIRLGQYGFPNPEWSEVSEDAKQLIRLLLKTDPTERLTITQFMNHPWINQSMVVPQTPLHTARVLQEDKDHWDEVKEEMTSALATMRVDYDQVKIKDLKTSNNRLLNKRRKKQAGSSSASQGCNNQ

**Q.** `C=CC(=O)Nc1ccc(C(=O)Nc2[nH]nc3c2CN(C(=O)N[C@H](CN(C)C)c2ccccc2)C3(C)C)cc1` was tested. Which % of engagement [1] did it give?
**A.** The % of engagement was 2.1%.

**Q.** For `COc1cc(N(C)c2ccnc3ccc(C(F)(F)F)cc23)cc(OC)c1OC`, which % binding [2] is on record?
**A.** The % binding was 92%.

**Q.** Which % of control [3] does the source give for `COCC(=O)NC/C=C/c1ccc2ncnc(Nc3ccc(Oc4ccc(C)nc4)c(C)c3)c2c1` [CP-724714] here?
**A.** Its % of control is 100%.

**Q.** And the % of control [4]?
**A.** The % of control was 90%.

**Q.** And the % of control [5]?
**A.** The % of control was 94%.

**Q.** Which % of control [6] does the source give for `Cc1cc(F)c(C(=O)Nc2cccc(-c3nncn3C(C)C)n2)cc1-n1cnc(C2CC2)c1` here?
**A.** Its % of control is 83%.

**Q.** With `O=C(NOC[C@H](O)CO)c1ccc(F)c(F)c1Nc1ccc(I)cc1F` as the compound, how does the % of control [7] read?
**A.** The % of control was 86%.

**Q.** What does the source list for `CC[C@@H]1[C@H](F)C(=O)N[C@@H]1COc1nccc2cc(C(N)=O)c(OC)cc12` [ZIMLOVISERTIB]?
**A.** % of inhibition ([8]; at 0.01 µM): 3.3%; % of inhibition ([8]; at 0.04 µM): 10.6%; % of inhibition ([8]; at 0.2 µM): 6.9%; % of inhibition ([8]; at 1 µM): -0.7%; % of inhibition ([8]; at 5 µM): 4.9%
